Measurements as given in patent US10519099B2, “Cystobactamides” (priority 2014, dated 2019).
Converted amounts (≈) assume the structure as drawn. Read-outs that look alike come from different tables or passages of the source.

Tests used:
[1] = system: Acinetobacter baumannii DSM-30008; test: MIC microdilution, A. baumannii DSM-30008; type: cell-based; details: Acinetobacter baumannii, DSM30008
Protocol: (§1) Indicator strains used in susceptibility assays were either part of our strain collection or purchased from the German Collection of Microorgansims and Cell Cultures (DSMZ) or from the American Type Culture Collection (ATCC). E. coli strain WT and corresponding E. coli mutants were kindly provided by Prof. Dr. P. Heisig, Pharmaceutical Biology and Microbiology, University of Hamburg. E. coli strains JW0401-1 (WT) and Δtsx were obtained from the CGSC collection.
(§2) MIC values were determined in standardized microdilution assays. Overnight cultures were diluted in the appropriate growth medium to achieve an inoculum of 10^4-10^6 cfu/mL. Yeasts were grown in Myc medium (1% phytone peptone, 1% glucose, 50 mM HEPES, pH 7.0), S. pneumonia and Enterococcus spp. in tryptic soy broth (TSB: 1.7% peptone casein, 0.3% peptone soymeal, 0.25% glucose, 0.5% NaCl, 0.25% K2HPO4; pH 7.3); M. smegmatis in Middlebrook 7H9 medium supplemented with 10% Middlebrook ADC enrichment and 2 ml/I glycerol). All other listed bacteria were grown in Müller-Hinton broth (0.2% beef infusion solids, 1.75% casein hydrolysate, 0.15% starch, pH 7.4). Cystobactamides and reference drugs were added directly to the cultures in sterile 96-well plates as duplicates and serial dilutions were prepared. Microorganisms were grown on a microplate shaker (750 rpm, 30-37° C., 18-48 h), except S. pneumonia, which was grown at non-shaking conditions (37° C., 5% CO2, 18 h). Growth inhibition was assessed by visual inspection and the MIC was defined as the lowest concentration of compound that inhibited visible growth.

E. coli WT = test: MIC microdilution, E. coli WT; type: cell-based, Escherichia coli; details: Escherichia coli
Protocol: as §1, §2

[2] = system: E. coli WT-III [marRΔ74bp]; test: MIC microdilution, E. coli WT-III [marRΔ74bp]; type: cell-based, Escherichia coli
Protocol: as §1, §2

[3] = system: P. aeruginosa DSM-24600 (ESBL); test: MIC microdilution, P. aeruginosa DSM-24600 (ESBL); type: cell-based, Pseudomonas aeruginosa; details: Pseudomonas aeruginosa, DSM24600
Protocol: as §1, §2

[4] = system: Proteus vulgaris DSM-2140; test: MIC microdilution, P. vulgaris DSM-2140; type: cell-based; details: Proteus vulgaris, DSM2140
Protocol: as §1, §2

[5] = system: Burkholderia cenocepacia DSM-16553; test: MIC microdilution, Burkholderia cenocepacia DSM-16553; type: cell-based; details: DSM16553, read-out: MIC Burkholderia cenocepacia DSM-16553
Protocol: as §1
as §2, with “Cystobactamides and reference drugs were added directly to the cultures in sterile 96-well plates as duplicates and serial dilutions were prepared. Microorganisms were grown on a microplate shaker (750 rpm, 30-37° C., 18-48 h), except S. pneumonia, which was grown at non-shaking conditions (37° C., 5% CO2, 18 h).” left out

[6] = system: Chromobacterium violaceum DSM-30191; test: MIC microdilution, Chromobacterium violaceum DSM-30191; type: cell-based; details: DSM30191, read-out: MIC Chromobacterium violaceum DSM-30191
Protocol: as §1
as §2, with “Cystobactamides and reference drugs were added directly to the cultures in sterile 96-well plates as duplicates and serial dilutions were prepared. Microorganisms were grown on a microplate shaker (750 rpm, 30-37° C., 18-48 h), except S. pneumonia, which was grown at non-shaking conditions (37° C., 5% CO2, 18 h).” left out

[7] = system: Escherichia coli MI [gyrA(S83L)]; test: MIC microdilution, E. coli MI [gyrA(S83L)]; type: cell-based; details: read-out: MIC Escherichia coli MI [gyrA(S83L)]
Protocol: as §1
as §2, with “Cystobactamides and reference drugs were added directly to the cultures in sterile 96-well plates as duplicates and serial dilutions were prepared. Microorganisms were grown on a microplate shaker (750 rpm, 30-37° C., 18-48 h), except S. pneumonia, which was grown at non-shaking conditions (37° C., 5% CO2, 18 h).” left out

[8] = system: Escherichia coli WT-3.2 [gyrA(D87G)]; test: MIC microdilution, E. coli WT-3.2 [gyrA(D87G)]; type: cell-based; details: read-out: MIC Escherichia coli WT-3.2 [gyrA(D87G)]
Protocol: as §1
as §2, with “Cystobactamides and reference drugs were added directly to the cultures in sterile 96-well plates as duplicates and serial dilutions were prepared. Microorganisms were grown on a microplate shaker (750 rpm, 30-37° C., 18-48 h), except S. pneumonia, which was grown at non-shaking conditions (37° C., 5% CO2, 18 h).” left out

[9] = system: Escherichia coli DSM-12242 (NAL^R); test: MIC microdilution, E. coli DSM-12242 (NAL^R); type: cell-based; details: DSM12242, read-out: MIC Escherichia coli DSM-12242 (NAL^R)
Protocol: as §1
as §2, with “Cystobactamides and reference drugs were added directly to the cultures in sterile 96-well plates as duplicates and serial dilutions were prepared. Microorganisms were grown on a microplate shaker (750 rpm, 30-37° C., 18-48 h), except S. pneumonia, which was grown at non-shaking conditions (37° C., 5% CO2, 18 h).” left out

[10] = system: Escherichia coli ATCC35218; test: MIC microdilution, E. coli ATCC35218; type: cell-based; details: ATCC35218, read-out: MIC Escherichia coli ATCC35218
Protocol: as §1
as §2, with “Cystobactamides and reference drugs were added directly to the cultures in sterile 96-well plates as duplicates and serial dilutions were prepared. Microorganisms were grown on a microplate shaker (750 rpm, 30-37° C., 18-48 h), except S. pneumonia, which was grown at non-shaking conditions (37° C., 5% CO2, 18 h).” left out

[11] = system: Escherichia coli ATCC25922; test: MIC microdilution, E. coli ATCC25922; type: cell-based; details: ATCC25922, read-out: MIC Escherichia coli ATCC25922
Protocol: as §1
as §2, with “Cystobactamides and reference drugs were added directly to the cultures in sterile 96-well plates as duplicates and serial dilutions were prepared. Microorganisms were grown on a microplate shaker (750 rpm, 30-37° C., 18-48 h), except S. pneumonia, which was grown at non-shaking conditions (37° C., 5% CO2, 18 h).” left out

[12] = system: Enterobacter aerogenes DSM-30053; test: MIC microdilution, Enterobacter aerogenes DSM-30053; type: cell-based; details: Klebsiella aerogenes, DSM30053, read-out: MIC Enterobacter aerogenes DSM-30053
Protocol: as §1
as §2, with “Cystobactamides and reference drugs were added directly to the cultures in sterile 96-well plates as duplicates and serial dilutions were prepared. Microorganisms were grown on a microplate shaker (750 rpm, 30-37° C., 18-48 h), except S. pneumonia, which was grown at non-shaking conditions (37° C., 5% CO2, 18 h).” left out

[13] = system: Pseudomonas aeruginosa PA14; test: MIC microdilution, P. aeruginosa PA14; type: cell-based; details: Pseudomonas aeruginosa, PA14, read-out: MIC Pseudomonas aeruginosa PA14
Protocol: as §1, §2

[14] = system: Pseudomonas aeruginosa ATCC27853; test: MIC microdilution, P. aeruginosa ATCC27853; type: cell-based; details: Pseudomonas aeruginosa, ATCC27853, read-out: MIC Pseudomonas aeruginosa ATCC27853
Protocol: as §1, §2

[15] = system: Pseudomonas aeruginosa DSM-24599; test: MIC microdilution, P. aeruginosa DSM-24599; type: cell-based; details: Pseudomonas aeruginosa, DSM24599, read-out: MIC Pseudomonas aeruginosa DSM-24599
Protocol: as §1, §2

[16] = system: Serratia marcescens DSM-30121; test: MIC microdilution, Serratia marcescens DSM-30121; type: cell-based; details: Serratia marcescens, DSM30121, read-out: MIC Serratia marcescens DSM-30121
Protocol: as §1, §2

[17] = system: Mycobacterium smegmatis ATCC700084; test: MIC microdilution, Mycobacterium smegmatis ATCC700084; type: cell-based; details: Mycolicibacterium smegmatis, ATCC700084, read-out: MIC Mycobacterium smegmatis ATCC700084
Protocol: as §1
as §2, with “Cystobactamides and reference drugs were added directly to the cultures in sterile 96-well plates as duplicates and serial dilutions were prepared. Microorganisms were grown on a microplate shaker (750 rpm, 30-37° C., 18-48 h), except S. pneumonia, which was grown at non-shaking conditions (37° C., 5% CO2, 18 h).” left out

Bacillus subtilis DSM-10 = test: MIC microdilution, Bacillus subtilis DSM-10; type: cell-based; details: DSM10, read-out: MIC Bacillus subtilis DSM-10
Protocol: as §1
as §2, with “Cystobactamides and reference drugs were added directly to the cultures in sterile 96-well plates as duplicates and serial dilutions were prepared. Microorganisms were grown on a microplate shaker (750 rpm, 30-37° C., 18-48 h), except S. pneumonia, which was grown at non-shaking conditions (37° C., 5% CO2, 18 h).” left out

[18] = system: Enterococcus faecalis ATCC29212; test: MIC microdilution, Enterococcus faecalis ATCC29212; type: cell-based; details: ATCC29212, read-out: MIC Enterococcus faecalis ATCC29212
Protocol: as §1
as §2, with “Cystobactamides and reference drugs were added directly to the cultures in sterile 96-well plates as duplicates and serial dilutions were prepared. Microorganisms were grown on a microplate shaker (750 rpm, 30-37° C., 18-48 h), except S. pneumonia, which was grown at non-shaking conditions (37° C., 5% CO2, 18 h).” left out

[19] = system: Enterococcus faecium DSM-20477; test: MIC microdilution, Enterococcus faecium DSM-20477; type: cell-based; details: Enterococcus faecium, DSM20477, read-out: MIC Enterococcus faecium DSM-20477
Protocol: as §1, §2

[20] = system: Micrococcus luteus DSM-1790; test: MIC microdilution, Micrococcus luteus DSM-1790; type: cell-based; details: DSM1790, read-out: MIC Micrococcus luteus DSM-1790
Protocol: as §1
as §2, with “Cystobactamides and reference drugs were added directly to the cultures in sterile 96-well plates as duplicates and serial dilutions were prepared. Microorganisms were grown on a microplate shaker (750 rpm, 30-37° C., 18-48 h), except S. pneumonia, which was grown at non-shaking conditions (37° C., 5% CO2, 18 h).” left out

[21] = system: Staphylococcus epidermidis DSM-28765; test: MIC microdilution, Staphylococcus epidermidis DSM-28765; type: cell-based; details: Staphylococcus epidermidis, DSM28765, read-out: MIC Staphylococcus epidermidis DSM-28765
Protocol: as §1, §2

[22] = system: Streptococcus pneumoniae DSM-20566; test: MIC microdilution, Streptococcus pneumoniae DSM-20566; type: cell-based; details: DSM20566, read-out: MIC Streptococcus pneumoniae DSM-20566
Protocol: as §1
as §2, with “Cystobactamides and reference drugs were added directly to the cultures in sterile 96-well plates as duplicates and serial dilutions were prepared. Microorganisms were grown on a microplate shaker (750 rpm, 30-37° C., 18-48 h), except S. pneumonia, which was grown at non-shaking conditions (37° C., 5% CO2, 18 h).” left out

COC(C(N)=O)C(NC(=O)c1ccc(NC(=O)c2ccc([N+](=O)[O-])cc2)cc1)C(=O)Nc1ccc(C(=O)Nc2ccc(C(=O)Nc3ccc(C(=O)O)cc3OC(C)C)c(O)c2OC(C)C)cc1 (centres unmarked) [Cys 919-2]
MIC ([1]; Gram-negative set, read-out: MIC A. baumannii DSM-30008): 8 µg/mL (≈ 8.7 µM)
MIC ([1]; larger panel, read-out: MIC Acinetobacter baumannii DSM-30008): 8 µg/mL (≈ 8.7 µM)
MIC (E. coli WT; Gram-negative set, read-out: MIC E. coli WT): 0.5 µg/mL (≈ 0.544 µM)
MIC (E. coli WT; larger panel, read-out: MIC Escherichia coli WT): 0.5 µg/mL (≈ 0.544 µM)
MIC E. coli WT-III [marRΔ74bp] ([2]; Gram-negative set): >64 µg/mL
MIC Escherichia coli WTIII (marRΔ74bp) ([2]; larger panel): 64 µg/mL (≈ 69.6 µM)
MIC ([3]; Gram-negative set, read-out: MIC P. aeruginosa DSM-24600 (ESBL)): 64 µg/mL (≈ 69.6 µM)
MIC ([3]; larger panel, read-out: MIC Pseudomonas aeruginosa DSM-24600 (ESBL)): 64 µg/mL (≈ 69.6 µM)
MIC ([4]; Gram-negative set, read-out: MIC P. vulgaris DSM-2140): 4 µg/mL (≈ 4.35 µM)
MIC ([4]; larger panel, read-out: MIC Proteus vulgaris DSM-2140): 4 µg/mL (≈ 4.35 µM)
MIC [5]: > 64 µg/mL
MIC [6]: 15 µg/mL (≈ 16.3 µM)
MIC [7]: 4 µg/mL (≈ 4.35 µM)
MIC [8]: 4 µg/mL (≈ 4.35 µM)
MIC [9]: 1 to 2 µg/mL (≈ 1.09 to 2.17 µM)
MIC [10]: 1 µg/mL (≈ 1.09 µM)
MIC [11]: 0.5 µg/mL (≈ 0.544 µM)
MIC [12]: > 64 µg/mL
MIC [13]: > 64 µg/mL
MIC [14]: > 64 µg/mL
MIC [15]: > 64 µg/mL
MIC [16]: > 64 µg/mL
MIC [17]: > 64 µg/mL
MIC (Bacillus subtilis DSM-10): 0.1 µg/mL (≈ 0.109 µM)
MIC [18]: 0.1 µg/mL (≈ 0.109 µM)
MIC [19]: 0.25 µg/mL (≈ 0.272 µM)
MIC [20]: 0.1 to 0.2 µg/mL (≈ 0.109 to 0.217 µM)
MIC [21]: 0.25 µg/mL (≈ 0.272 µM)
MIC [22]: 0.1 µg/mL (≈ 0.109 µM)
